In PubChem BioAssay AID2060910 (Molecular Pharmacology Branch, DTP, NCI, 2025):

Tested on: 242566-281-R-J2-PDC complex spheroid viability
Assay: Anticancer human tumor 242566-281-R-J2-PDC patient-derived pancreatic carcinoma cell line growth inhibition [RAS]
Details: for IC50: curve of first compound; for viability, T/C: stronger effect = lower value
Excerpt: RAS pathway inhibitors in Combinations in Complex Spheroids
A high-throughput screen of multi-cell type tumor spheroids was designed to identify active combinations of RAS pathway inhibitors and targeted small molecules. Complex spheroids include a stromal component modeled by human endothelial cells (HUVEC) and fibroblasts modeled by human mesenchymal stem cells (MSCs). The concentration ranges selected for each drug and investigational agent were based upon clinically achievable concentrations if the clinical Cmax of the agent was known.
Compounds. The drugs and investigational agents: abemaciclib (NSC768073), cobimetinib (NSC768068), divarasib (GDC6063, NSC841802), docetaxel (NSC628503), GDC-1971 (RLY-1971, NSC841576), gemcitabine (NSC613327), inavolisib (NSC800729), ipatasertib (NSC767898), KB-0742 (NSC834161), MRTX-1133 (NSC836407), osimertinib (NSC779217), RMC-4630 (NSC839698), RMC-6236 (NSC851965), RMC-6291 (NSC852671), Ro-3306 (NSC812927), sapanisertib (NSC764658), SN-38 (NSC673596), staurosporine (NSC755774), SY5609 (NSC837396), and tovorafenib (DAY101, NSC766906), were obtained from the National Cancer Institute (NCI) Developmental Therapeutics Program Chemical Repository. The FDA-approved anticancer drug set is available from the NCI Developmental Therapeutics Program. […] The stock solutions were prepared in dimethyl sulfoxide (DMSO, Sigma-Aldrich, St. Louis, MO, cat. D2650) at 800-fold the tested concentration and stored at -70 degrees C prior to their use. All drugs and investigational agents were tested over a range starting from a high concentration at or near the clinical Cmax and decreasing in half-log increments. If the clinical Cmax for an agent had not been determined, the highest concentration tested was 10 microM.
Cell Culture. All cells were maintained in an incubator at 37 degrees C and 5% CO2 with 95% humidity. The PDC lines were cultured according to standard operating procedures established by the NCI PDMR. All PDCs were thawed and cultured in Matrigel-coated flasks prepared with a working solution of 1X Ham's F-12 nutrient mix, without supplementation (Invitrogen, Waltham, MA, cat. 11765054), 100 U/mL penicillin-streptomycin (Invitrogen, cat. 15140122), and 2.5% Matrigel (Corning Inc., Corning, NY, cat. 354248) for the first three passages. The 362531-283-R-J2-PDC and 782815-120-R-J1-PDC lines were cultured in 6C/Colon 1B media, which includes advanced DMEM/F-12 (Thermo Fisher Scientific, cat. 12634028), 10 mM HEPES (Thermo Fisher Scientific, cat. 15630080), 1X GlutaMAX supplement (Thermo Fisher Scientific, cat. 35050061), 0.1 mg/mL primocin (InvivoGen, San Diego, CA, cat. ant-pm-2), 10% defined fetal bovine serum, heat inactivated (HyClone Laboratories Inc., Logan, UT, cat. SH30070.03HI), 50% L-WRN conditioned media (ATCC, cat. CRL-3276), 1.25 mM N-Acetyl-L-cysteine (Sigma-Aldrich, cat. A9165), 10 mM nicotinamide (Sigma-Aldrich, cat. N0636), 1X B-27 supplement (Thermo Fisher Scientific, cat. 17504044), 1X N-2 supplement (Thermo Fisher Scientific, cat. 17502048), 50 ng/mL human EGF (Thermo Fisher Scientific, cat. PHG0311), and 10 microM Y-27632 dihydrochloride (Tocris Bioscience, cat. 1254). The K12877-001-R-J1-PDC line was cultured in 6I media, which includes all 6C/Colon 1B media plus 10 ng/mL human FGF-10 (PeproTech, cat. 100-26), 1 ng/mL human FGF-2 (PeproTech, cat. 100-18B), 1 µM prostaglandin E2 (Tocris Bioscience, cat. 2296), […] hydrocortisone (Sigma-Aldrich, cat. H4001), and […] bovine insulin (Sigma-Aldrich, cat. I6634). The K86415-001-R-J1-PDC line was cultured in 6D media, which includes all 6C/Colon 1B media components minus the L-WRN conditioned media. The 485176-168-R4-J1-PDC was cultured in PANC media, which includes all 6C/Colon 1B media plus 100 ng/mL human FGF-10 (PeproTech, cat. 100-26), 500 nM SB-431542 (Selleckchem, cat. S1067), and 10 nM gastrin (Tocris Bioscience, cat. 3006). […]

[1] = second compound 0.0316 µM, first compound 0.00316 µM
[2] = second compound 0.0316 µM, first compound 0.01 µM
[3] = second compound 0.0316 µM, first compound 0.0316 µM
[4] = second compound 0.0316 µM, first compound 0.1 µM
[5] = second compound 0.0316 µM, first compound 0.316 µM
[6] = second compound 0.0316 µM, first compound 1 µM
[7] = second compound 0.1 µM, first compound 0.00316 µM
[8] = second compound 0.1 µM, first compound 0.01 µM
[9] = second compound 0.1 µM, first compound 0.0316 µM
[10] = second compound 0.1 µM, first compound 0.1 µM
[11] = second compound 0.1 µM, first compound 0.316 µM
[12] = second compound 0.1 µM, first compound 1 µM
[13] = second compound 0.316 µM, first compound 0.00316 µM
[14] = second compound 0.316 µM, first compound 0.01 µM
[15] = second compound 0.316 µM, first compound 0.0316 µM
[16] = second compound 0.316 µM, first compound 0.1 µM
[17] = second compound 0.316 µM, first compound 0.316 µM
[18] = second compound 0.316 µM, first compound 1 µM
[19] = second compound 1 µM, first compound 0.00316 µM
[20] = second compound 1 µM, first compound 0.01 µM
[21] = second compound 1 µM, first compound 0.0316 µM
[22] = second compound 1 µM, first compound 0.1 µM
[23] = second compound 1 µM, first compound 0.316 µM
[24] = second compound 1 µM, first compound 1 µM
[25] = second compound 3.16 µM, first compound 0.00316 µM
[26] = second compound 3.16 µM, first compound 0.01 µM
[27] = second compound 3.16 µM, first compound 0.0316 µM
[28] = second compound 3.16 µM, first compound 0.1 µM
[29] = second compound 3.16 µM, first compound 0.316 µM
[30] = second compound 3.16 µM, first compound 1 µM
[31] = second compound 10 µM, first compound 0.00316 µM
[32] = second compound 10 µM, first compound 0.01 µM
[33] = second compound 10 µM, first compound 0.0316 µM
[34] = second compound 10 µM, first compound 0.1 µM
[35] = second compound 10 µM, first compound 0.316 µM
[36] = second compound 10 µM, first compound 1 µM
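Further: spheroids exposed to compound for 7 days before readout.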
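Wherever viability, T/C is given: 100% = DMSO vehicle control wells.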

Structure (SMILES): C=CC(=O)Nc1cc(Nc2nccc(-c3cn(C)c4ccccc34)n2)c(OC)cc1N(C)CCN(C)C + C#Cc1c(F)ccc2cc(O)cc(-c3ncc4c(N5CC6CCC(C5)N6)nc(OCC56CCCN5CC(F)C6)nc4c3F)c12
- IC50 (second compound 0.0316 µM): 114 nM
- IC50 (second compound 0.1 µM): 70.8 nM
- IC50 (second compound 0.316 µM): 88.1 nM
- IC50 (second compound 1 µM): 25.2 nM
- IC50 (second compound 3.16 µM): 22.2 nM
- IC50 (second compound 10 µM): 16.1 nM
- viability, T/C [1]: 81.2%
- viability, T/C [2]: 115%
- viability, T/C [3]: 80.8%
- viability, T/C [4]: 52.9%
- viability, T/C [5]: 43.1%
- viability, T/C [6]: 37.9%
- viability, T/C [7]: 80.3%
- viability, T/C [8]: 85.2%
- viability, T/C [9]: 60.7%
- viability, T/C [10]: 46.9%
- viability, T/C [11]: 41.3%
- viability, T/C [12]: 35.2%
- viability, T/C [13]: 77.6%
- viability, T/C [14]: 75.2%
- viability, T/C [15]: 66%
- viability, T/C [16]: 47.1%
- viability, T/C [17]: 40.7%
- viability, T/C [18]: 35.3%
- viability, T/C [19]: 68.3%
- viability, T/C [20]: 60.2%
- viability, T/C [21]: 46.7%
- viability, T/C [22]: 42.1%
- viability, T/C [23]: 36.4%
- viability, T/C [24]: 38.5%
- viability, T/C [25]: 60.2%
- viability, T/C [26]: 58.6%
- viability, T/C [27]: 48%
- viability, T/C [28]: 41%
- viability, T/C [29]: 36.1%
- viability, T/C [30]: 37.7%
- viability, T/C [31]: 57.1%
- viability, T/C [32]: 57.1%
- viability, T/C [33]: 44.6%
- viability, T/C [34]: 40.1%
- viability, T/C [35]: 39.8%
- viability, T/C [36]: 36.7%

Structure (SMILES): O=C(c1ccc(F)c(F)c1Nc1ccc(I)cc1F)N1CC(O)([C@@H]2CCCCN2)C1 + C#Cc1c(F)ccc2cc(O)cc(-c3ncc4c(N5CC6CCC(C5)N6)nc(OCC56CCCN5CC(F)C6)nc4c3F)c12
- IC50 (second compound 0.0316 µM): 83.3 nM
- IC50 (second compound 0.1 µM): 56 nM
- IC50 (second compound 0.316 µM): 25.2 nM
- IC50 (second compound 1 µM): 8.45 nM
- IC50 (second compound 3.16 µM): 4.18 nM
- IC50 (second compound 10 µM): < 3.16 nM
- viability, T/C [1]: 89.3%
- viability, T/C [2]: 90.4%
- viability, T/C [3]: 69.1%
- viability, T/C [4]: 47.9%
- viability, T/C [5]: 38.6%
- viability, T/C [6]: 44.2%
- viability, T/C [7]: 76.1%
- viability, T/C [8]: 73.6%
- viability, T/C [9]: 57.7%
- viability, T/C [10]: 42%
- viability, T/C [11]: 40.9%
- viability, T/C [12]: 38.5%
- viability, T/C [13]: 73%
- viability, T/C [14]: 59.7%
- viability, T/C [15]: 49.9%
- viability, T/C [16]: 37.3%
- viability, T/C [17]: 32.2%
- viability, T/C [18]: 39.9%
- viability, T/C [19]: 60.1%
- viability, T/C [20]: 49.5%
- viability, T/C [21]: 44.8%
- viability, T/C [22]: 30.4%
- viability, T/C [23]: 35.1%
- viability, T/C [24]: 38.6%
- viability, T/C [25]: 50.8%
- viability, T/C [26]: 48.6%
- viability, T/C [27]: 34%
- viability, T/C [28]: 29.4%
- viability, T/C [29]: 34.9%
- viability, T/C [30]: 38.2%
- viability, T/C [31]: 52.6%
- viability, T/C [32]: 41.3%
- viability, T/C [33]: 34.1%
- viability, T/C [34]: 37%
- viability, T/C [35]: 36.8%
- viability, T/C [36]: 37.5%
